This is an account of results in US20050169994A1 (priority 2003, published 2005).

Where a name gives a salt, the structure may show the parent alone. Read-outs that look alike come from different tables or passages of the source.

Data set [1] is described as follows: pH-solubility profile for carvedilol. The note with it: aqueous medium.
The conditions of data set [2]: R and S isomers, systemic circulation; cited from earlier work.
The conditions of data set [3]: cited from earlier work.
The conditions of data set [4]: pH 7.1.
Data set [5] is described as follows: Solubility in water at 25° C. over time, with pH of filtered solution. The text has this:
Aliquots were taken out at various time-point, filtered through 0.45 μm Acrodisc GHP filter.

Broadly, the thermodynamic solubility is the concentration in solution at equilibrium with solid. A word on the solubility: it is the concentration that dissolves in the medium under given conditions. `COc1ccccc1OCCNCC(O)COc1cccc2[nH]c3ccccc3c12` (stereo not drawn) [Carvedilol]: the thermodynamic solubility in data set [1] was ≤ 100 µg/mL. In data set [2], the alpha elimination phase result is “about 1.5 hours”. Further, the solubility was < 1 µg/mL in data set [3] (above a pH of 9.0) and 20 to 30 µg/mL in data set [4]. Moreover, the saturation solubility entry in data set [3] (pH=5, room temperature) is “about 100 μg/mL”; in data set [3] (pH=7, room temperature), “about 23 μg/mL”.
Turning to `COc1ccccc1OCCNCC(O)COc1cccc2[nH]c3ccccc3c12` (stereo not drawn) [HBr salt, carvedilol hydrobromide], in data set [5], the “aqueous solubility compared with free base” value is “much better aqueous solubility than the free base”.
With `COc1ccccc1OCCNCC(O)COc1cccc2[nH]c3ccccc3c12.O=P(O)(O)O` (stereo not drawn) [Phosphate salt, Carvedilol dihydrogen phosphate], in data set [5] (in words), the “aqueous solubility compared with free base” value was “much better aqueous solubility than the free base”.
`COc1ccccc1OCCNCC(O)COc1cccc2[nH]c3ccccc3c12` (stereo not drawn) [hydrochloride salt of carvedilol, carvedilol hydrochloride]: the “solubility in acidic medium” value in data set [3] (salt generated in situ in acidic medium simulating gastric fluid) is listed as “less soluble”.
